Assay results as given in the supplement of paper PMC4862054.

Experiments:
[1] = test system: CAL-148; assay: drug sensitivity score (DSS), CellTox Green (DSS (AUC-based score)); higher = stronger drug effect (viability inhibition or cytotoxicity); extreme values may be limits of the assay; settings: incubation time: 72 h
Summary of the method: (§1)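 Plates with 384 wells held compound at 5 concentrations in 10-fold steps over a 10,000-fold range specific to each compound. Breast cancer cell lines were added in 20 µl suspension and incubated 72 h, then read for CellTox Green and CellTiter-Glo signals, with each plate normalised to 0.1 % DMSO and a positive kill control. The drug sensitivity score is based on the area under the fitted dose-response curve.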

[2] = test system: CAL-120; assay: as above; settings: incubation time: 72 h
Summary of the method: as §1

[3] = test system: BT-474; assay: as above; settings: incubation time: 72 h
Summary of the method: as §1

[4] = test system: MDA-MB-453; assay: as above; settings: incubation time: 72 h
Summary of the method: as §1

[5] = test system: Hs578T; assay: as above; settings: incubation time: 72 h
Summary of the method: as §1

[6] = test system: HCC1143; assay: as above; settings: incubation time: 72 h
Summary of the method: as §1

[7] = test system: HDQ-P1; assay: as above; settings: incubation time: 72 h
Summary of the method: as §1

[8] = test system: DU-4475; assay: as above; settings: incubation time: 72 h
Summary of the method: as §1

[9] = test system: BT-549; assay: as above; settings: incubation time: 72 h
Summary of the method: as §1

[10] = test system: CAL-51; assay: as above; settings: incubation time: 72 h
Summary of the method: as §1

[11] = test system: MDA-MB-231; assay: normalised viability (% of control), CellTiter-Blue; higher = more viable cells (about 100 = DMSO control); settings: 100 nM; incubation time: 72 h
Procedure: (§2)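 DSRT, CellTiter-Blue viability, 72 h incubation. Signal is normalised to DMSO and benzethonium chloride controls. Value is the normalised response at dose 3.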

[12] = test system: MDA-MB-468; assay: as above; settings: 100 nM; incubation time: 72 h
Procedure: as §2

[13] = test system: CAL-148; assay: as above; settings: 10 nM; incubation time: 72 h
Procedure: as §2

[14] = test system: CAL-120; assay: as above; settings: 100 nM; incubation time: 72 h
Procedure: as §2

[15] = test system: BT-474; assay: as above; settings: 100 nM; incubation time: 72 h
Procedure: as §2

[16] = test system: HCC1937; assay: as above; settings: 100 nM; incubation time: 72 h
Procedure: as §2

[17] = test system: MDA-MB-453; assay: as above; settings: 10 nM; incubation time: 72 h
Procedure: as §2

[18] = test system: HCC1599; assay: as above; settings: 100 nM; incubation time: 72 h
Procedure: as §2

[19] = test system: Hs578T; assay: as above; settings: 100 nM; incubation time: 72 h
Procedure: as §2

[20] = test system: HCC1143; assay: as above; settings: 100 nM; incubation time: 72 h
Procedure: as §2

[21] = test system: MDA-MB-436; assay: as above; settings: 100 nM; incubation time: 72 h
Procedure: as §2

[22] = test system: CAL-85-1; assay: as above; settings: 10 nM; incubation time: 72 h
Procedure: as §2

[23] = test system: HDQ-P1; assay: as above; settings: 10 nM; incubation time: 72 h
Procedure: as §2

[24] = test system: MFM-223; assay: as above; settings: 100 nM; incubation time: 72 h
Procedure: as §2

[25] = test system: SK-BR-3; assay: as above; settings: 100 nM; incubation time: 72 h
Procedure: as §2

[26] = test system: DU-4475; assay: as above; settings: 10 nM; incubation time: 72 h
Procedure: as §2

[27] = test system: BT-549; assay: as above; settings: 100 nM; incubation time: 72 h
Procedure: as §2

[28] = test system: CAL-51; assay: as above; settings: 10 nM; incubation time: 72 h
Procedure: as §2

[29] = test system: CAL-120; assay: drug sensitivity score (DSS), CellTiter-Glo (DSS (AUC-based score)); higher = stronger drug effect (viability inhibition or cytotoxicity); extreme values may be limits of the assay; settings: incubation time: 72 h
Summary of the method: as §1

Row | Compound | drug sensitivity score [1] | drug sensitivity score [2] | drug sensitivity score [3] | drug sensitivity score [4] | drug sensitivity score [5] | drug sensitivity score [6] | drug sensitivity score [7] | drug sensitivity score [8] | drug sensitivity score [9] | drug sensitivity score [10] | normalised viability [11] | normalised viability [12] | normalised viability [13] | normalised viability [14] | normalised viability [15] | normalised viability [16] | normalised viability [17] | normalised viability [18] | normalised viability [19] | normalised viability [20] | normalised viability [21] | normalised viability [22] | normalised viability [23] | normalised viability [24] | normalised viability [25] | normalised viability [26] | normalised viability [27] | normalised viability [28] | drug sensitivity score [29]
1 | CNC(=O)c1cc(Oc2ccc(NC(=O)Nc3ccc(Cl)c(C(F)(F)F)c3)c(F)c2)ccn1 [Regorafenib] | 0 | 0 | 0 | 0 | 0 | 0 | 0 | 0 | 0 | 0 | 75.3% | 107% | 93.6% | 87.7% | 98.3% | 90.4% | 110% | 135% | 98.4% | 74.6% | 121% | 97.1% | 89.6% | 92.6% | 89.3% | 104% | 112% | 101% | 1.79
2 | CC(C)C[C@@H](C(=O)N[C@H](C(=O)OC1CCCC1)c1ccccc1)[C@H](O)C(=O)NO [Tosedostat] | 0 | 13.6 | 2.81 | 0 | 1.64 | 1.52 | 10.1 | 0 | 9.06 | 15.2 | 72.6% | 64.6% | 91.2% | 66.8% | 110% | 67.9% | 99.1% | 102% | 94.2% | 89.3% | 96.2% | 89.4% | 113% | 79.8% | 88.7% | 79.7% | 72.7% | 101% | 12.7
3 | COc1cc2/c(=N/c3ccc(Br)cc3F)nc[nH]c2cc1OCC1CCN(C)CC1 [Vandetanib] | 0 | 0 | 0 | 0 | 0 | 0 | 1.32 | 0 | 0 | 0 | 94% | 93.8% | 92% | 98.3% | 90.6% | 81.8% | 104% | 96.3% | 67.8% | 111% | 71.3% | 104% | 76.7% | 112% | 63.8% | 110% | 89% | 99.3% | 0.197
4 | Cc1ccc(NC(=O)c2ccc(CN3CCN(C)CC3)cc2)cc1Nc1nc(-c2cccnc2)cs1 [Masitinib] | 0 | 0 | 0 | 0 | 1.55 | 0 | 0 | 0 | 0 | 0 | 88.7% | 103% | 89.8% | 82.3% | 115% | 107% | 103% | 109% | 86.6% | 83% | 71.6% | 98.1% | 116% | 101% | 80.7% | 102% | 88.3% | 100% | 0
